Laboratory results taken from PMC9138683, “Decoding the Role of Melatonin Structure on Plasmodium falciparum Human Malaria Parasites Synchronization Using 2-Sulfenylindoles Derivatives” (Biomolecules, 2022).
“Also recorded” adds a separate entry of the source.

Columns and labels:
[1] = system: Plasmodium falciparum 3D7 (chloroquine-sensitive); assay: In vitro drug susceptibility assay, 3D7 strain (flow cytometry, SYBR Green I / MitoTracker Deep Red); type: cell-based; conditions: Plasmodium falciparum, 3D7, 72 h, asynchronous parasites, 72 h, 0.1-100 µM; read-out: IC50 ± SD Pf3D7
Method: The cultures were maintained under an atmosphere of 5% CO2, 5% O2, and 90% N2. Fresh complete medium was provided daily, and rapid-stained (Panotico) blood smears were examined.
To evaluate the effects of synthetic compounds on the intraerythrocytic development of P. falciparum, we analyzed parasitemia by flow cytometry with 0.3% initial parasitemia and 1% hematocrit in the assay. Plates were incubated with the compounds at concentrations ranging from 0.10 to 100 µM for 72 h. Dual staining with SYBR Green I (SG-I) (Invitrogen, Waltham, MA, USA) and MitoTracker Deep Red (MT-Red) (Invitrogen) were used to label nucleic acids and mitochondria, respectively. Approximately 10,000 cells were counted by an Accuri C6 (Becton Dickinson, San Jose, CA, USA) and analyzed by FlowJo 5 software. Parasitemia was determined from the analysis of dot plots (side scatter versus fluorescence).
We determined the susceptibility of P. falciparum to the indole compounds and investigated whether CQR parasites responded differently to the compounds. […] We determined the IC50 values for each compound by analyzing viable and non-viable parasites after compound treatment, represented in dot plots (Figure 1H).

Cytotoxicity assay (MTT) = type: cell-based, human; conditions: human, HEK293T (HEK293) cells, 0.10-100 µM, read-out: CC50 ± SD HEK293
Method: (§1) HEK293T (human embryonic kidney) cells were cultured in 75 cm^2 vented tissue culture flasks (Greiner Bio-One, Frickenhausen, Germany) at 37 °C in a humidified atmosphere containing 5% CO2 in Dulbecco’s modified […] (Gibco) supplemented with 10% (v/v) fetal bovine serum (Gibco), 100 U/mL penicillin, and 100 μg/mL streptomycin (Sigma). Cytotoxicity was evaluated with the 4,5-dimethylthiazol-2-yl-2,5-diphenyltetrazolium bromide (MTT) cell proliferation assay. Briefly, 10^4 cells/well were seeded in flat-bottom 96-well plates in complete DMEM medium for 24 h, followed by incubation with different concentrations of each compound (0.10–100 µM) for 72 h. DMSO (0.13%) and digitonin were used as the negative and positive controls, respectively. The concentrations of DMSO chosen as control were the concentration present in the tested compounds (from 0.0001% to 0.12%, two-fold dilution). After 72 h, cells were then incubated with the MTT reagent for 3 h, and absorbance was measured at 570 nm using a FlexStation® 3 Multi-Mode Microplate Reader (Molecular Devices, Sunnyvale, CA, USA). Moreover, we calculated the selectivity indexes (SI) to understand whether the compounds were more toxic to parasites than cells, or vice versa, according to the ratio of the CC50 value to the IC50 value for each compound.
(§2) We further assessed the toxicity of 2-sulfenylindole compounds against HEK293 cells using the MTT assay with different concentrations of the compounds for 72 h. Table 1 presents all the toxicity data and summarizes the IC50 values of the compounds evaluated in this study for Dd2 and 3D7 strains.

HEK293 cell line = assay: Cytotoxicity assay (MTT); type: cell-based, human; conditions: 72 h
Method: as §1, §2

[2] = system: P. falciparum 3D7 parasites; assay: Effects of indole derivatives (500 nM) on parasitemia; type: cell-based, Plasmodium falciparum; conditions: for Parasitemia (%), melatonin alone: normalized to DMSO control (100.6%), compound-alone experiment
Method: (§3) To evaluate the role of the compounds in parasitemia, 1% 3D7 parasites in 2% hematocrit were incubated for 48 h with 500 nM of the 2-sulfenylindole derivatives. Melatonin (100 nM) was used as a positive control, and DMSO (0.0013% v/v) was used as a negative control. The concentration of DMSO chosen as control was the concentration present in the tested compounds at 500 nM. The activity of the compounds was measured by SG-I and MT-Red staining. The data obtained were normalized to those of the control (DMSO). Additionally, to test the ability of the compounds to affect melatonin activity in parasitemia, 3D7 parasites were incubated with 500 nM indole compounds along with 100 nM melatonin for 48 h.
After incubation, the final parasitemia was determined using flow cytometry.

[3] = system: P. falciparum 3D7 parasites; assay: Effect of 2-sulfenylindoles in combination with 100 nM melatonin on parasitemia; type: cell-based, Plasmodium falciparum; conditions: 3D7, 48 h; for Parasitemia (%), melatonin alone: 100 nM melatonin only, normalized to DMSO control (100.7%), combination experiment
Method: as §3
Following the assumption that compounds resembling melatonin structure might interact through the melatonin signaling pathways, we evaluated the effect of the compounds on melatonin action on parasitemia. Our next step was to study the combination of 2-sulfenylindoles with melatonin in asynchronous 3D7 by incubating parasites simultaneously with 100 nM melatonin and 500 nM of each compound.

P. falciparum 3D7 strain = assay: Blood-stage development evaluation by microscopy; type: cell-based, Plasmodium falciparum
Method: Ring-stage parasites (10–14 h) at 1% parasitemia in 2% hematocrit were treated with compound 20 and compound 28 at concentrations of 1 and 30 µM in 24-well plates for 48 h. Treatment with chloroquine (20 nM) and DMSO (0.1%) was used as positive and negative controls. Smears were rapid stained (Panotico) every 12 h after treatment (12, 24, 36, 48, and 60 h time points), and we took images of parasites to assess the blood-stage development (Zeiss, Oberkochen, Germany).
During monitoring, parasites continued to develop throughout the cycle in the presence of both compounds. […] To examine its stage specificity, we monitored development every 12 h.
Figure 5 Parasitemia reduction with compound 20 (A) and compound 28 (B) to determine the stage activity. Data are means ± SD. Ring-stage synchronized parasites with sorbitol 5% were treated with chloroquine (20 nM), compound 20 (30 µM), and compound 28 (30 µM). The chosen treatment concentration was the IC50 values obtained for these compounds against the 3D7 parasites. (C) After drug administration, smears of P. falciparum 3D7 strain were taken at 0, 12, 24, 36, 48, and 60 h after drug administration, observing the growth development of treated parasites. * p ≤ 0.05, ** p ≤ 0.01, *** p ≤ 0.001.

[4] = system: CDPKs, PKG, and its accessory genes; assay: Real-time PCR of CDPKs, PKG and accessory genes after melatonin treatment; type: cell-based, Plasmodium falciparum
Method: P. falciparum trophozoites (approximately 30–34 h post invasion) were treated with 100 nM and 1 µM melatonin (SIGMA-Aldrich, Burlington, MA, USA). RNA was extracted with Trizol (Life Technologies, Carlsbad, CA, USA) 1 and 3 h post treatment. cDNA synthesis was carried out using random primers and Superscript IV reverse transcriptase (Life Technologies) according to the manufacturer’s protocol. Oligonucleotides used are listed in Supplementary Table S1. SYBR Green incorporation was measured during PCR amplification performed on the 7300 Real-Time PCR System (Applied Biosystems, Foster City, CA, USA). The statistical analysis was performed by applying Student’s t-test on the log2 values of relative expression (delta delta Ct method) of the genes (normalized with the seryl t-RNA synthase housekeeping gene).
Previous studies have shown that melatonin alters the expression of the ubiquitin/proteasome system, mitochondrial FIS1, DYN2 [27], and nuclear PfMORC [28]. These findings lead us to investigate the effect of melatonin on kinases, phosphodiesterase, and cyclase for two reasons; first, kinases and their components are required for rupturing the parasites to facilitate egress in both asexual and sexual stages. […] We treated the late-stage trophozoite with two different melatonin concentrations (100 nM and 1 µM) for two time points (1 and 3 h). […] It is possible that melatonin may act upstream of PKG and modulates cytosolic calcium, but this hypothesis requires more experimental validation.
Figure 6 Differential transcription of CDPKs, PKG, and its accessory genes from parasites treated with melatonin for 1 and 3 h. Sorbitol synchronized parasites were treated with melatonin, and RNA samples were extracted, purified, and transcript level was investigated by RT-qPCR. Expression of genes has been normalized by housekeeping seryl-tRNA Synthetase expression for (A) 100 nM melatonin for 1 h; (B) 100 nM melatonin for 3 h; (C) 1 μM melatonin for 1 h; and (D) 1 μM melatonin for 3 h. […]

## COC(=O)Cc1c(SCCCCCCCCCCC(=O)O)[nH]c2ccccc12 [Compound 20]
[1]
  IC50: 28.8 ± 4.86 µM
Cytotoxicity assay (MTT)
  CC50 at 72 h: > 100 µM
HEK293 cell line
  cytotoxic effect against HEK293 cells (in words): low cytotoxic effect
[2]; 500 nM compound alone, 3D7 asynchronous, 48 h
  effect on parasitemia (in words): led to an increase in parasitemia; also recorded: significantly increase the parasitemia
[2]; 500 nM compound, 3D7, 48 h, compared to DMSO control (100.6%)
  increase in parasitemia: 9.1%
[2]; Plasmodium falciparum, 3D7, 48 h, normalized to DMSO control, read-out: Parasitemia (%) Treatment with compound (500nM)
  activity at 0.5 µM: 110 ± 4.07%
[3]; normalized to DMSO control
  Parasitemia (%) Treatment with compound (500nM) + Melatonin (100nM): 122.3 ± 3.71%
P. falciparum 3D7 strain; 3D7, ring-stage synchronized, 30 µM (IC50), Figure 5A,B
  effect on parasitemia during blood-stage progression: significantly affect parasitemia
P. falciparum 3D7 strain; ring-stage synchronized 3D7, treated at IC50 (30 µM for 20 and 28), monitored every 12 h
  stage-specific effect on blood-stage development: affects RBC reinvasion

## COc1ccc2[nH]cc(CCNC(C)=O)c2c1 [Melatonin]
[2]; 100 nM melatonin, 3D7, 48 h, from 100.6% (control)
  rise in parasitemia: 6.9%
[2]; 100 nM melatonin, 3D7, 48 h
  Parasitemia (%), melatonin alone: 107.5 ± 4.32%
[2]; 100 nM melatonin, 3D7, 48 h, listed as melatonin
  Parasitemia (%), melatonin alone: 107.5%
[3]
  Parasitemia (%), melatonin alone: 113.5 ± 2.75%
[3]; listed as melatonin
  Parasitemia (%), melatonin alone: 113.5%
[4]; 100 nM melatonin for 1 h, late-stage trophozoite, CDPK1 and GCα
  change in gene expression: very minor effect
[4]; 100 nM melatonin, after 3 h, additional CDPK6, CDPK7, PKG, PDEα, and GCβ
  change in gene expression: increased expression
[4]; 1 µM melatonin for 3 h, cGMP-dependent signaling component
  change in gene expression: most prominent effect
